Measurements taken from patent US9079866B2, “Flap modulators” (JANSSEN PHARMACEUTICA NV, priority 2013, dated 2015).
Structures can show the parent of a compound that is named as a salt. Where two headings read alike, the source gives them in different places.

What was measured:
[1] = tested on: leukotriene pathway in human whole blood (LTB4 levels); test: Human whole blood assay (A23187-stimulated LTB4); format: cell-based; details: Homo sapiens, read-out: LTB4 IC50 1:1
Procedure: The ability of the compounds of the present invention to treat a FLAP-mediated disease and/or disorder, or associated symptoms or complications thereof, was determined using the following procedures. Binding assay data represent the average value obtained from two different assay plates, with samples run in duplicate on each plate. Human whole blood assay data represent a single replicate on an assay plate using whole blood from at least one healthy donor.
An in vitro cellular assay was performed using human whole blood collected in heparin-containing tubes, which was used to test the ability of compounds to modulate the leukotriene pathway in human whole blood. The blood was diluted 1:1 in RPMI medium, pre-incubated for 15 min at 37° Celsius with test compounds at various concentrations, and then stimulated with calcium ionophore, A23187 (7 μg/mL), for 30 min at 37° Celsius. The samples were then centrifuged and plasma was removed. The plasma was diluted in assay buffer and LTB4 levels were measured using a commercial kit (Enzo Life Sciences). The concentration of each compound that was required for half-maximal inhibition (modulation) of recombinant enzyme activity (IC50) was calculated by a 4-parameter equation using the program GraphPad Prism (GraphPad software).

human FLAP = human FLAP (Homo sapiens (Human), UniProt P20292); test: FLAP binding assay (HTRF format); details: human FLAP wild type, HTRF format; average of two plates, duplicates
human FLAP, sequence (P20292 whole entry): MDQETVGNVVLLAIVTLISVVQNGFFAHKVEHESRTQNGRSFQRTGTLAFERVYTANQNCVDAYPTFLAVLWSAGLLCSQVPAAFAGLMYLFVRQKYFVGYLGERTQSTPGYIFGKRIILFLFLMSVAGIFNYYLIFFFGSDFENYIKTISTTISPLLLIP
Method in brief: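 Binding of compounds to FLAP read out as HTRF ratio. Values are the mean of two assay plates, each sample run in duplicate per plate.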

[2] = human whole blood diluted 1:1 in RPMI, A23187-stimulated LTB4
[3] = human whole blood diluted 1:1, A23187-stimulated

SMILES | IC50 [1, 2] | Ki (human FLAP) | IC50 [1, 3]
Nc1cnc(-c2ccc(-c3ccccc3S(=O)(=O)N3CCC(O)(c4ccccc4)C3)cc2F)cn1 (racemic) [Example 180, racemic 1-{[4′-(5-Aminopyrazin-2-yl)-3′-fluorobiphenyl-2-yl]sulfonyl}-3-phenylpyrrolidin-3-ol] | 37 nM | 2 nM | 
Nc1cnc(-c2ccc(-c3ccccc3SCC3CNC(=O)O3)cc2F)cn1 (racemic) [Example 203, racemic 5-({[4′-(5-Aminopyrazin-2-yl)-3′-fluorobiphenyl-2-yl]sulfanyl}methyl)-1,3-oxazolidin-2-one] | 52 nM | 5 nM | 
Nc1ncc(-c2ccc(-c3ccccc3S(=O)(=O)N3CCOC(CO)C3)cc2F)cn1 (racemic) [Example 252, racemic (4-{[4′-(2-Aminopyrimidin-5-yl)-3′-fluorobiphenyl-2-yl]sulfonyl}morpholin-2-yl)methanol] | 206 nM | 127 nM | 
Nc1cnc(-c2ccc(-c3ccccc3S(N)(=O)=O)c(F)c2F)cn1 [Example 464, 4′-(5-Aminopyrazin-2-yl)-2′,3′-difluorobiphenyl-2-sulfonamide] |  |  | > 10000 nM
CC(C)(C)NS(=O)(=O)c1ccccc1-c1ccc(-c2cnc(N)nc2)c(F)c1F [Example 466, 4′-(2-Aminopyrimidin-5-yl)-N-tert-butyl-2′,3′-difluorobiphenyl-2-sulfonamide trifluoroacetic acid salt] |  |  | 990 nM
CS(=O)(=O)c1cc(F)ccc1-c1ccc(-c2cnc3[nH]ccc3n2)c(F)c1 [Example 489, 2-[3,4′-Difluoro-2′-(methylsulfonyl)biphenyl-4-yl]-5H-pyrrolo[2,3-b]pyrazine] |  |  | 307 nM
Nc1cnc(-c2ccc(-c3ccccc3Oc3ncccn3)cc2F)cn1 [Example 526, 5-[3-Fluoro-2′-(pyrimidin-2-yloxy)biphenyl-4-yl]pyrazin-2-amine] |  |  | 19 nM
N#Cc1cc(Oc2ccccc2-c2ccc(-c3cnc(N)nc3)c(F)c2)ccn1 [Example 538, 4-{[4′-(2-Aminopyrimidin-5-yl)-3′-fluorobiphenyl-2-yl]oxy}pyridine-2-carbonitrile] |  |  | 330 nM
Nc1cnc(-c2ccc(-c3ccc(C(F)(F)F)cc3Oc3ncccn3)cc2F)cn1 [Example 551, 5-[3-Fluoro-2′-(pyrimidin-2-yloxy)-4′-(trifluoromethyl)biphenyl-4-yl]pyrazin-2-amine] |  |  | 21 nM
COc1cc(C(F)(F)F)ccc1-c1ccc(-c2cnc(N)cn2)c(F)c1 [Example 553, 5-[3-Fluoro-2′-methoxy-4′-(trifluoromethyl)biphenyl-4-yl]pyrazin-2-amine] |  |  | 430 nM
Nc1nc(-c2ccc(-c3ccccc3S(=O)(=O)N3CCCC3)cc2F)cs1 [Example 579, 4-[3-Fluoro-2′-(pyrrolidin-1-ylsulfonyl)biphenyl-4-yl]-1,3-thiazol-2-amine] |  |  | 1540 nM
Nc1cnc(-c2ccc(-c3ccccc3O[C@H]3CCCNC3)cc2F)cn1 [Example 634, 5-{3-Fluoro-2′-[(3S)-piperidin-3-yloxy]biphenyl-4-yl}pyrazin-2-amine] |  |  | 1470 nM
C[C@@H]([C@@H](O)c1ccccc1)N(C)S(=O)(=O)c1ccccc1-c1ccc(-c2ccc(N)nc2)c(F)c1 [Example 666, 4′-(6-Aminopyridin-3-yl)-3′-fluoro-N-((1S,2S)-1-hydroxy-1-phenylpropan-2-yl)-N-methyl-[1,1′-biphenyl]-2-sulfonamide] |  |  | 36.1 nM
CC(=O)NC1CCN(S(=O)(=O)c2ccccc2-c2ccc(-c3cnc(N)c(F)c3)c(F)c2)CC1 [Example 670, N-(1-((4′-(6-Amino-5-fluoropyridin-3-yl)-3′-fluoro-[1,1′-biphenyl]-2-yl)sulfonyl)piperidin-4-yl)acetamide] |  |  | 526 nM
N#Cc1nc(N)cnc1-c1ccc(-c2ccc(C(F)(F)F)cc2S(=O)(=O)N2CCNC(=O)C2)cc1F [Example 715, 6-Amino-3-{3-fluoro-2′-[(3-oxopiperazin-1-yl)sulfonyl]-4′-(trifluoromethyl)biphenyl-4-yl}pyrazine-2-carbonitrile] |  |  | 186 nM
N#Cc1nc(N)cnc1-c1ccc(-c2ccccc2Oc2nccc(N)n2)cc1F [Example 745, 6-Amino-3-{2′-[(4-aminopyrimidin-2-yl)oxy]-3-fluorobiphenyl-4-yl}pyrazine-2-carbonitrile] |  |  | 111 nM

Second part, the compound after the results:

IC50 [1, 2] | Ki (human FLAP) | IC50 [1, 3] | SMILES
12 nM | 1 nM |  | CC(NS(=O)(=O)c1ccccc1-c1ccc(-c2cnc(N)cn2)c(F)c1)C(F)(F)F (racemic) [Example 8, racemic 4′-(5-Aminopyrazin-2-yl)-3′-fluoro-N-(2,2,2-trifluoro-1-methylethyl)biphenyl-2-sulfonamide]
53 nM | 3 nM |  | Nc1cnc(-c2ccc(-c3ccccc3S(=O)(=O)NC3CC4CCC3C4)cc2F)cn1 (racemic) [Example 10, racemic (endo)-4′-(5-Aminopyrazin-2-yl)-N-bicyclo[2.2.1]hept-2-yl-3′-fluorobiphenyl-2-sulfonamide]
117 nM | 11 nM |  | Nc1cnc(-c2ccc(-c3ccccc3S(=O)(=O)N3CCN4CCCC4C3)cc2F)cn1 (racemic) [Example 61, racemic 5-[3-Fluoro-2′-(hexahydropyrrolo[1,2-a]pyrazin-2(1H)-ylsulfonyl)biphenyl-4-yl]pyrazin-2-amine]
111 nM | 142 nM |  | CC1CN(S(=O)(=O)c2ccccc2-c2ccc(-c3cnc(N)cn3)c(F)c2)CC(C)N1 (racemic) [Example 62, Racemic-5-{2′-[(3,5-Dimethylpiperazin-1-yl)sulfonyl]-3-fluorobiphenyl-4-yl}pyrazin-2-amine]
23 nM | 2 nM |  | Nc1cnc(-c2ccc(-c3ccccc3S(=O)(=O)N3CCCC(CCO)C3)cc2F)cn1 (racemic) [Example 71, racemic-2-(1-{[4′-(5-Aminopyrazin-2-yl)-3′-fluorobiphenyl-2-yl]sulfonyl}piperidin-3-yl)ethanol]
61 nM | 6 nM |  | Nc1cnc(-c2ccc(-c3ccccc3S(=O)(=O)N3CCCC(N)C3)cc2F)cn1 (racemic) [Example 74, racemic 5-{2′-[(3-Aminopiperidin-1-yl)sulfonyl]-3-fluorobiphenyl-4-yl}pyrazin-2-amine]
342 nM | 3 nM |  | CC(C)(C)OC(=O)NC1CCCN(S(=O)(=O)c2ccccc2-c2ccc(-c3cnc(N)cn3)c(F)c2)C1 (racemic) [Example 77, racemic tert-Butyl (1-{[4′-(5-aminopyrazin-2-yl)-3′-fluorobiphenyl-2-yl]sulfonyl}piperidin-3-yl)carbamate]
17 nM | 1 nM |  | Nc1cnc(-c2ccc(-c3ccccc3S(=O)(=O)N[C@H]3CCCC[C@@H]3O)cc2F)cn1 (racemic) [Example 120, Racemic-(trans)-4′-(5-Aminopyrazin-2-yl)-3′-fluoro-N-(2-hydroxycyclohexyl)biphenyl-2-sulfonamide]
18 nM | 1 nM |  | Nc1cnc(-c2ccc(-c3ccccc3S(=O)(=O)N[C@@H]3CCCC[C@@H]3CO)cc2F)cn1 (racemic) [Example 122, racemic (cis)-4′-(5-Aminopyrazin-2-yl)-3′-fluoro-N-[2-(hydroxymethyl)cyclohexyl]biphenyl-2-sulfonamide]
341 nM | 133 nM |  | NC(=O)C1CCN1S(=O)(=O)c1ccccc1-c1ccc(-c2cnc(N)cn2)c(F)c1 (racemic) [Example 139, Racemic 1-{[4′-(5-Aminopyrazin-2-yl)-3′-fluorobiphenyl-2-yl]sulfonyl}azetidine-2-carboxamide]
41 nM | 15 nM |  | Nc1cnc(-c2ccc(-c3ccccc3S(=O)(=O)N3CCOC(CO)C3)cc2F)cn1 (racemic) [Example 142, racemic (4-{[4′-(5-Aminopyrazin-2-yl)-3′-fluorobiphenyl-2-yl]sulfonyl}morpholin-2-yl)methanol]
21 nM | 19 nM |  | Nc1cnc(-c2ccc(-c3ccccc3S(=O)(=O)N3C[C@H](O)[C@@H](N4CCCC4)C3)cc2F)cn1 (racemic) [Example 186, Racemic-1′-{[4′-(5-Aminopyrazin-2-yl)-3′-fluorobiphenyl-2-yl]sulfonyl}-1,3′-bipyrrolidin-4′-ol]
34 nM | 5 nM |  | Nc1ncc(-c2ccc(-c3ccccc3S(=O)(=O)N[C@H]3CCCC[C@H]3O)cc2F)cn1 (racemic) [Example 259, racemic 4′-(2-Aminopyrimidin-5-yl)-3′-fluoro-N-[(cis)-2-hydroxycyclohexyl]biphenyl-2-sulfonamide]
57 nM | 10 nM |  | Nc1ncc(-c2ccc(-c3ccccc3S(=O)(=O)N[C@H]3CCCC[C@@H]3O)cc2F)cn1 (racemic) [Example 260, racemic 4′-(2-Aminopyrimidin-5-yl)-3′-fluoro-N-[(trans)-2-hydroxycyclohexyl]biphenyl-2-sulfonamide]
 |  | 414 nM | CC(C)(C(N)=O)S(=O)(=O)c1ccccc1-c1ccc(-c2cnc(N)cn2)c(F)c1 [Example 736, 2-{[4′-(5-Aminopyrazin-2-yl)-3′-fluorobiphenyl-2-yl]sulfonyl}-2-methylpropanamide]
